Laboratory results published in the supplement of paper PMC10307832.

Key:
Assay in all cases: relative viability (nuclei count vs DMSO), 5 days (fraction); higher = more cells survive
[1] = system: CAL-12T
Method in brief: (§1)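 Relative viability divides the nuclei count in treated wells by that in vehicle wells. Lung cancer cell lines were seeded in 1536-well plates, dosed by pin tool the next day, and fixed and stained after 5 days in one step with final 0.05% Triton X-100, 1% formaldehyde and 1 ug/ml Hoechst. Dosing was a single drug or a fixed anchor-drug dose plus five library-drug doses (not always all listed) in √10 steps, and values are medians of duplicate plates imaged at 4×.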

[2] = system: EKVX
Method in brief: as §1

[3] = system: H3255
Method in brief: as §1

[4] = system: HCC-15
Method in brief: as §1

[5] = system: HCC-827
Method in brief: as §1

[6] = system: LCLC-97TM1
Method in brief: as §1

[7] = system: LK-2
Method in brief: as §1

[8] = system: NCI-H1355
Method in brief: as §1

[9] = system: NCI-H1563
Method in brief: as §1

[10] = system: NCI-H1650
Method in brief: as §1

[11] = system: NCI-H1734
Method in brief: as §1

[12] = system: NCI-H1755
Method in brief: as §1

[13] = system: NCI-H1975
Method in brief: as §1

[14] = system: NCI-H2228
Method in brief: as §1

[15] = system: NCI-H2342
Method in brief: as §1

[16] = system: NCI-H2405
Method in brief: as §1

[17] = system: NCI-H322M
Method in brief: as §1

[18] = system: NCI-H520
Method in brief: as §1

[19] = system: NCI-H661
Method in brief: as §1

[20] = system: PC-14
Method in brief: as §1

[21] = system: PC-3 [JPC-3]
Method in brief: as §1

[22] = system: RERF-LC-KJ
Method in brief: as §1

Cc1sc2c(c1C)C(c1ccc(Cl)cc1)=N[C@@H](CC(=O)OC(C)(C)C)c1nnc(C)n1-2 [JQ1] + CCNC(=O)c1noc(-c2cc(C(C)C)c(O)cc2O)c1-c1ccc(CN2CCOCC2)cc1 [Luminespib] (partner 0.01 µM)
relative viability ([1]; first compound 0.04 µM): 0.364 | relative viability ([1]; first compound 0.1265 µM): 0.184 | relative viability ([1]; first compound 0.4 µM): 0.367 | relative viability ([1]; first compound 1.265 µM): 0.134 | relative viability ([1]; first compound 4 µM): 0.146 | relative viability ([2]; first compound 0.04 µM): 0.832 | relative viability ([2]; first compound 0.1265 µM): 0.877 | relative viability ([2]; first compound 0.4 µM): 0.895 | relative viability ([2]; first compound 1.265 µM): 0.824 | relative viability ([2]; first compound 4 µM): 0.572 | relative viability ([3]; first compound 0.04 µM): 0.904 | relative viability ([3]; first compound 0.1265 µM): 0.699 | relative viability ([3]; first compound 0.4 µM): 1.01 | relative viability ([3]; first compound 1.265 µM): 0.768 | relative viability ([3]; first compound 4 µM): 0.416 | relative viability ([4]; first compound 0.04 µM): 0.348 | relative viability ([4]; first compound 0.4 µM): 0.45 | relative viability ([4]; first compound 1.265 µM): 0.298 | relative viability ([4]; first compound 4 µM): 0.216 | relative viability ([5]; first compound 0.04 µM): 0.887 | relative viability ([5]; first compound 0.4 µM): 0.424 | relative viability ([5]; first compound 1.265 µM): 0.624 | relative viability ([5]; first compound 4 µM): 0.59 | relative viability ([6]; first compound 0.04 µM): 0.81 | relative viability ([6]; first compound 0.1265 µM): 0.762 | relative viability ([6]; first compound 0.4 µM): 0.768 | relative viability ([6]; first compound 1.265 µM): 0.356 | relative viability ([6]; first compound 4 µM): 0.3 | relative viability ([7]; first compound 0.04 µM): 0.188 | relative viability ([7]; first compound 0.1265 µM): 0.157 | relative viability ([7]; first compound 0.4 µM): 0.143 | relative viability ([7]; first compound 1.265 µM): 0.142 | relative viability ([7]; first compound 4 µM): 0.136 | relative viability ([8]; first compound 0.04 µM): 0.715 | relative viability ([8]; first compound 0.1265 µM): 0.715 | relative viability ([8]; first compound 0.4 µM): 0.453 | relative viability ([8]; first compound 1.265 µM): 0.359 | relative viability ([8]; first compound 4 µM): 0.339 | relative viability ([9]; first compound 0.04 µM): 0.565 | relative viability ([9]; first compound 0.1265 µM): 0.478 | relative viability ([9]; first compound 0.4 µM): 0.449 | relative viability ([9]; first compound 1.265 µM): 0.447 | relative viability ([9]; first compound 4 µM): 0.491 | relative viability ([10]; first compound 0.04 µM): 0.21 | relative viability ([10]; first compound 0.1265 µM): 0.199 | relative viability ([10]; first compound 0.4 µM): 0.167 | relative viability ([10]; first compound 1.265 µM): 0.161 | relative viability ([10]; first compound 4 µM): 0.206 | relative viability ([11]; first compound 0.04 µM): 0.254 | relative viability ([11]; first compound 0.1265 µM): 0.165 | relative viability ([11]; first compound 0.4 µM): 0.158 | relative viability ([11]; first compound 1.265 µM): 0.124 | relative viability ([11]; first compound 4 µM): 0.173 | relative viability ([12]; first compound 0.04 µM): 0.645 | relative viability ([12]; first compound 0.1265 µM): 0.283 | relative viability ([12]; first compound 0.4 µM): 0.539 | relative viability ([12]; first compound 1.265 µM): 0.393 | relative viability ([12]; first compound 4 µM): 0.442 | relative viability ([13]; first compound 0.04 µM): 0.212 | relative viability ([13]; first compound 0.1265 µM): 0.137 | relative viability ([13]; first compound 0.4 µM): 0.162 | relative viability ([13]; first compound 1.265 µM): 0.206 | relative viability ([13]; first compound 4 µM): 0.172 | relative viability ([14]; first compound 0.04 µM): 0.148 | relative viability ([14]; first compound 0.1265 µM): 0.19 | relative viability ([14]; first compound 0.4 µM): 0.0885 | relative viability ([14]; first compound 1.265 µM): 0.112 | relative viability ([14]; first compound 4 µM): 0.103 | relative viability ([15]; first compound 0.04 µM): 0.633 | relative viability ([15]; first compound 0.1265 µM): 0.569 | relative viability ([15]; first compound 0.4 µM): 0.8 | relative viability ([15]; first compound 1.265 µM): 0.739 | relative viability ([15]; first compound 4 µM): 0.539 | relative viability ([16]; first compound 0.04 µM): 0.795 | relative viability ([16]; first compound 0.1265 µM): 0.637 | relative viability ([16]; first compound 0.4 µM): 0.963 | relative viability ([16]; first compound 1.265 µM): 0.719 | relative viability ([16]; first compound 4 µM): 0.655 | relative viability ([17]; first compound 0.04 µM): 0.797 | relative viability ([17]; first compound 0.1265 µM): 0.879 | relative viability ([17]; first compound 0.4 µM): 0.599 | relative viability ([17]; first compound 1.265 µM): 0.383 | relative viability ([17]; first compound 4 µM): 0.395 | relative viability ([18]; first compound 0.04 µM): 0.224 | relative viability ([18]; first compound 0.1265 µM): 0.244 | relative viability ([18]; first compound 0.4 µM): 0.218 | relative viability ([18]; first compound 1.265 µM): 0.25 | relative viability ([18]; first compound 4 µM): 0.229 | relative viability ([19]; first compound 0.04 µM): 0.971 | relative viability ([19]; first compound 0.1265 µM): 0.968 | relative viability ([19]; first compound 0.4 µM): 1.01 | relative viability ([19]; first compound 1.265 µM): 0.646 | relative viability ([19]; first compound 4 µM): 0.593 | relative viability ([20]; first compound 0.04 µM): 0.146 | relative viability ([20]; first compound 0.1265 µM): 0.146 | relative viability ([20]; first compound 0.4 µM): 0.0705 | relative viability ([20]; first compound 1.265 µM): 0.0929 | relative viability ([20]; first compound 4 µM): 0.0646 | relative viability ([21]; first compound 0.04 µM): 0.82 | relative viability ([21]; first compound 0.1265 µM): 0.716 | relative viability ([21]; first compound 0.4 µM): 0.614 | relative viability ([21]; first compound 1.265 µM): 0.443 | relative viability ([21]; first compound 4 µM): 0.302 | relative viability ([22]; first compound 0.04 µM): 1.25 | relative viability ([22]; first compound 0.1265 µM): 1.07 | relative viability ([22]; first compound 0.4 µM): 1.04 | relative viability ([22]; first compound 1.265 µM): 0.668 | relative viability ([22]; first compound 4 µM): 0.414
